Laboratory results as given in PubChem BioAssay (NCI).
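Following 48 hours of exposure in 96-well plates, responses at five concentrations were used to interpolate endpoints linearly. GI50 = concentration required for 50% inhibition of growth. At the TGI there is no net growth.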

Experiments:
Assay in all cases: DTP human tumour cell line panel, 48 h
NCI-H460 lung = test system: NCI-H460 lung
K-562 leukemia = test system: K-562 leukemia
NCI-H522 lung = test system: NCI-H522 lung
A549 NSCLC = test system: A549 NSCLC
UO-31 renal = test system: UO-31 renal
HS 578T breast = test system: HS 578T breast
IGROV1 ovarian = test system: IGROV1 ovarian
UACC-62 melanoma = test system: UACC-62 melanoma
SN12C renal = test system: SN12C renal
HCC-2998 colon = test system: HCC-2998 colon
ACHN renal = test system: ACHN renal
MALME-3M melanoma = test system: MALME-3M melanoma
SF-295 CNS = test system: SF-295 CNS
MCF7 breast = test system: MCF7 breast
RXF 393 renal = test system: RXF 393 renal
SK-MEL-5 melanoma = test system: SK-MEL-5 melanoma
SNB-75 CNS = test system: SNB-75 CNS
A498 renal = test system: A498 renal
SF-539 CNS = test system: SF-539 CNS
NCI-H226 lung = test system: NCI-H226 lung
T-47D breast = test system: T-47D breast
OVCAR-4 ovarian = test system: OVCAR-4 ovarian
PC-3 prostate = test system: PC-3 prostate
MDA-MB-231 breast = test system: MDA-MB-231 breast
KM12 colon = test system: KM12 colon
SR leukemia = test system: SR leukemia
LOX IMVI melanoma = test system: LOX IMVI melanoma
DU-145 prostate = test system: DU-145 prostate
HCT-116 colon = test system: HCT-116 colon

SMILES: COc1cc2nc(-c3ccc(C(F)(F)F)cc3)cc(OCCCN3CCCCC3)c2cc1OC
- GI50 (NCI-H460 lung): 595 nM
- TGI (NCI-H460 lung): 11900 nM
- GI50 (K-562 leukemia): 578 nM
- TGI (K-562 leukemia): 10400 nM
- GI50 (NCI-H522 lung): 2440 nM
- TGI (NCI-H522 lung): 21700 nM
- GI50 (A549 NSCLC): 722 nM
- TGI (A549 NSCLC): 19400 nM
- GI50 (UO-31 renal): 2000 nM
- TGI (UO-31 renal): 12500 nM
- GI50 (HS 578T breast): 2150 nM
- TGI (HS 578T breast): 9940 nM
- GI50 (IGROV1 ovarian): 651 nM
- TGI (IGROV1 ovarian): 16000 nM
- GI50 (UACC-62 melanoma): 1820 nM
- TGI (UACC-62 melanoma): 6290 nM
- GI50 (SN12C renal): 668 nM
- TGI (SN12C renal): 15800 nM
- GI50 (HCC-2998 colon): 1280 nM
- TGI (HCC-2998 colon): 5720 nM
- GI50 (ACHN renal): 1200 nM
- TGI (ACHN renal): 14400 nM
- GI50 (MALME-3M melanoma): 1260 nM
- TGI (MALME-3M melanoma): 4030 nM
- GI50 (SF-295 CNS): 530 nM
- TGI (SF-295 CNS): 2040 nM
- GI50 (MCF7 breast): 1160 nM
- TGI (MCF7 breast): 4390 nM
- GI50 (RXF 393 renal): 1090 nM
- TGI (RXF 393 renal): 4260 nM
- GI50 (SK-MEL-5 melanoma): 325 nM
- TGI (SK-MEL-5 melanoma): 1200 nM
- GI50 (SNB-75 CNS): 1960 nM
- TGI (SNB-75 CNS): 6860 nM
- GI50 (A498 renal): 1850 nM
- TGI (A498 renal): 5160 nM
- GI50 (SF-539 CNS): 2080 nM
- TGI (SF-539 CNS): 8320 nM
- GI50 (NCI-H226 lung): 370 nM
- TGI (NCI-H226 lung): 3510 nM
- GI50 (T-47D breast): 454 nM
- TGI (T-47D breast): 22400 nM
- GI50 (OVCAR-4 ovarian): 2910 nM
- TGI (OVCAR-4 ovarian): 31300 nM
- GI50 (PC-3 prostate): 1340 nM
- TGI (PC-3 prostate): 11200 nM
- GI50 (MDA-MB-231 breast): 536 nM
- TGI (MDA-MB-231 breast): 4040 nM
- GI50 (KM12 colon): 2920 nM
- TGI (KM12 colon): 26900 nM
- GI50 (SR leukemia): 193 nM
- TGI (SR leukemia): 3620 nM
- GI50 (LOX IMVI melanoma): 162 nM
- TGI (LOX IMVI melanoma): 355 nM
- GI50 (DU-145 prostate): 1840 nM
- TGI (DU-145 prostate): 16500 nM
- GI50 (HCT-116 colon): 429 nM
